The target of series [1] is T1, hMAO-B (Homo sapiens, UniProt P27338).
T1 sequence (P27338 1-520): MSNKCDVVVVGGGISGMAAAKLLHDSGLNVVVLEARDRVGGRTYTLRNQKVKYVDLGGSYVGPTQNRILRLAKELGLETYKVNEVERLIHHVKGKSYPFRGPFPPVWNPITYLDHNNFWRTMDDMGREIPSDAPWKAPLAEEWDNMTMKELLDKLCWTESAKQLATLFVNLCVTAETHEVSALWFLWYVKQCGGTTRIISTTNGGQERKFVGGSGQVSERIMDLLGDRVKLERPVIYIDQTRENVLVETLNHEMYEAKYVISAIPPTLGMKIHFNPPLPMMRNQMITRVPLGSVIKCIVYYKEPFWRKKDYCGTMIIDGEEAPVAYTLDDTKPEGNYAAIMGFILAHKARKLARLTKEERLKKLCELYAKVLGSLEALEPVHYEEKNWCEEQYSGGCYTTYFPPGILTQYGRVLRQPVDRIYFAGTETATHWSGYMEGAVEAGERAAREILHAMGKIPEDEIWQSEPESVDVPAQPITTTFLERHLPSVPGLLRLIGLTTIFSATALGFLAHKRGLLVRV
In words: hMAO-B inhibitory activity assay (recombinant enzyme, benzylamine substrate).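 On all read-outs here: benzylamine used at 0.3 mM as hMAO-B substrate, compounds first screened at 10 µM, hMAO-A assayed with 0.06 mM kynuramine for the selectivity ratio.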 Particulars: for SI (selectivity index for hMAO-B as compared with hMAO-A): IC50 of hMAO-A/IC50 of hMAO-B; for remaining activity at 10 µM: read-out: Residual activity at 10 µM (%) hMAO-B.

Series [2] has as its target T2, hMAO-A (Homo sapiens, UniProt P21397).
T2 construct: purchased Sigma-Aldrich (St. Louis, MO, USA)
T2 sequence (P21397 1-527): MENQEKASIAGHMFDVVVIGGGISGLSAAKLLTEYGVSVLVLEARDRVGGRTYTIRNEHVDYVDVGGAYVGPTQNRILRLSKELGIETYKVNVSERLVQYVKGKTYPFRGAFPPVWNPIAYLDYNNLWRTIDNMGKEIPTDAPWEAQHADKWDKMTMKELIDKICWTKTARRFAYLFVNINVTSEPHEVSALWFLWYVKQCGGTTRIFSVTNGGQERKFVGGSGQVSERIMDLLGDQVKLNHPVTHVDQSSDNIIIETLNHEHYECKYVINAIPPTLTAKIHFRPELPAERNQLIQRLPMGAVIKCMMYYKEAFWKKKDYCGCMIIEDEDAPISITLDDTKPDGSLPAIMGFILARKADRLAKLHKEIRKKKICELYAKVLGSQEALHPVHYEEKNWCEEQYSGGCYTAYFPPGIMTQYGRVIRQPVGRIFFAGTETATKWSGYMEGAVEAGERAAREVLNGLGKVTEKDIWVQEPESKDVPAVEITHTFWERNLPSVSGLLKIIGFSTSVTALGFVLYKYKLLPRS
In words: hMAO-A inhibitory activity assay (recombinant enzyme, kynuramine substrate). The format is biochemical. The conditions noted are these: kynuramine 0.06 mM; for remaining activity at 10 µM: 10 µM compound, read-out: Residual activity at 10 µM (%) hMAO-A.

The target in series [3] is T1, hMAO-B.
Series [4] can be described thus: Parallel artificial membrane permeation assay (PAMPA) for BBB permeation. The format is in vitro ADME. Particulars: for Papp: pH 7.4, read-out: Experimental Pe. For orientation: In PAMPA a lipid-coated filter parts donor from acceptor wells.
Series [5] deals with T1, hMAO-B. In words: Enzyme kinetic study of hMAO-B inhibition (Lineweaver–Burk and secondary plots). The format is biochemical. On the set-up: purchased Sigma-Aldrich (St. Louis, MO, USA). The conditions noted are these: for Type of hMAO-B inhibition: Lineweaver–Burk plots; for Ki: secondary plots, five substrate and three inhibitor concentrations.
Series [6] has as its target T1, hMAO-B. In words: Reversibility analysis of hMAO-B inhibition by dialysis. The format is biochemical. On the set-up: purchased Sigma-Aldrich (St. Louis, MO, USA). The conditions noted are these: for Reversibility of hMAO-B inhibition: dialysis; for Relative activity of hMAO-B, undialyzed (AU) / Relative activity of hMAO-B, dialyzed (AD): preincubation 30 min at ~2 × IC50 (B10 0.134, B15 0.240, lazabemide 0.220, pargyline 0.280 μM); for Relative activity of hMAO-B, dialyzed (AD): after dialysis.

Details of series [7]: method as in PMID 26587996. Particulars: cited from earlier work.

Read-outs that look alike come from different tables or passages of the source.

A word on the IC50: it is the concentration at which inhibition is half-maximal. Broadly, the Ki is the equilibrium dissociation constant of an inhibitor or competing ligand from its target. Higher therefore signals lower affinity.

As for `O=C(/C=C/c1ccccc1OCc1ccccc1)c1ccc2c(c1)OCO2` [Compound B1], in series [1], the IC50 turned out to be 1.44 ± 0.149 µM, the “SI (selectivity index for hMAO-B as compared with hMAO-A)” value was 18.677 and the remaining activity at 10 µM was determined as 35.5 ± 6.05%. Besides, in series [2], the remaining activity at 10 µM worked out at 82.6 ± 5.03% and the IC50 was found to be 26.9 ± 4.16 µM.

For `O=C(/C=C/c1ccc(OCc2ccccc2)cc1)c1ccc2c(c1)OCO2` [Compound B2], in series [1], the IC50 worked out at 0.626 ± 0.296 µM and the remaining activity at 10 µM turned out to be 23.6 ± 0.96%. In series [2], the remaining activity at 10 µM was found to be 53.1 ± 1.58% and the IC50 is 13.7 ± 1.53 µM. Also, the “SI (selectivity index for hMAO-B as compared with hMAO-A)” value in series [3] turned out to be 21.933.

With `O=C(/C=C/c1ccc(OCc2ccccc2)cc1)c1ccc2c(c1)OCCO2` [Compound B3], in series [1], the IC50 came to 0.261 ± 0.016 µM, the “SI (selectivity index for hMAO-B as compared with hMAO-A)” value was 54.663 and the remaining activity at 10 µM was 0%. Further, in series [2], the remaining activity at 10 µM came out at 58.3 ± 0.84% and the IC50 turned out to be 14.3 ± 0.203 µM.

`CS(=O)(=O)c1ccc(C(=O)/C=C/c2ccccc2OCc2ccccc2)cc1` [Compound B4]: in series [1], the half-maximal inhibitory concentration (IC50) came to 0.233 ± 0.11 µM, the “SI (selectivity index for hMAO-B as compared with hMAO-A)” value was determined as 125.915 and the remaining activity at 10 µM was 16.2 ± 6.49%. Moreover, in series [2], the remaining activity at 10 µM turned out to be 78.2 ± 4.32% and the IC50 was 29.4 ± 2.71 µM.

As for `CS(=O)(=O)c1ccc(C(=O)/C=C/c2ccc(OCc3ccccc3)cc2)cc1` [Compound B5], in series [1], the IC50 turned out to be 0.224 ± 0.082 µM, the “SI (selectivity index for hMAO-B as compared with hMAO-A)” value is more than 178.651 and the remaining activity at 10 µM came to 0%. In series [2], the remaining activity at 10 µM is 89.2 ± 4.47% and the IC50 is more than 40 µM.

Consider `CSc1ccc(C(=O)/C=C/c2ccccc2OCc2ccccc2)cc1` [Compound B6], for which, in series [1], the half-inhibitory concentration (IC50) turned out to be 6.55 ± 1.34 µM, the “SI (selectivity index for hMAO-B as compared with hMAO-A)” value was more than 6.107 and the remaining activity at 10 µM was determined as 41.3 ± 4.9%. Further, in series [2], the remaining activity at 10 µM was 92 ± 2.93% and the IC50 is more than 40 µM.

As to `CSc1ccc(C(=O)/C=C/c2ccc(OCc3ccccc3)cc2)cc1` [Compound B7], in series [1], the IC50 worked out at 0.149 ± 0.006 µM, the “SI (selectivity index for hMAO-B as compared with hMAO-A)” value stood at 84.544 and the remaining activity at 10 µM was found to be 0%. For the same molecule, in series [2], the remaining activity at 10 µM worked out at 58.4 ± 4.48% and the IC50 came to 12.6 ± 0.898 µM.

As for `O=C(/C=C/c1ccccc1OCc1ccccc1)c1ccc(Br)s1` [Compound B8], in series [1], the IC50 came out at 17.9 ± 0.268 µM, the “SI (selectivity index for hMAO-B as compared with hMAO-A)” value is recorded as more than 2.237 and the remaining activity at 10 µM was 64.4 ± 1.5%. Moreover, in series [2], the remaining activity at 10 µM was found to be 92.45 ± 0.49% and the IC50 is more than 40 µM.

`O=C(/C=C/c1ccc(OCc2ccccc2)cc1)c1ccc(Br)s1` [Compound B9]: in series [1], the IC50 worked out at 0.236 ± 0.017 µM, the “SI (selectivity index for hMAO-B as compared with hMAO-A)” value was 101.551 and the remaining activity at 10 µM was 0%. In series [2], the remaining activity at 10 µM was 69.1 ± 1.54% and the IC50 was 24 ± 1.44 µM.

In the case of `O=C(/C=C/c1ccc(OCc2ccccc2)cc1)c1cccs1` [Compound B10], in series [1], the IC50 was found to be 0.067 ± 0.005 µM, the “SI (selectivity index for hMAO-B as compared with hMAO-A)” value was 504.791 and the remaining activity at 10 µM was determined as 0%. In series [4], the Pe value result is “higher than 4.0 × 10^–6 cm/s”, the “Prediction (CNS permeation)” value is on record as “CNS + (Pe (10^−6 cm/s) > 4.00: CNS + (high permeation))” and the Papp is 4.93 ± 0.13 ×10⁻⁶ cm/s. For the same molecule, in series [2], the remaining activity at 10 µM was found to be 76.7 ± 3.22% and the IC50 is 33.8 ± 6.89 µM. Also, in series [5], the “Type of hMAO-B inhibition” value is “competitive inhibitors of hMAO-B” and the Ki is 0.03 ± 0.001 µM. Moreover, in series [6], the “Reversibility of hMAO-B inhibition” value is listed as “reversible inhibitors of hMAO-B”; the “Relative activity of hMAO-B, undialyzed (AU)” value amounted to 44.29%; the “Relative activity of hMAO-B, dialyzed (AD)” value stood at 77.53%.

On to `O=C(/C=C/c1ccccc1OCc1ccccc1)c1cccs1` [Compound B11], for which, in series [1], the IC50 was determined as 5.78 ± 2.39 µM, the “SI (selectivity index for hMAO-B as compared with hMAO-A)” value is listed as more than 6.915 and the remaining activity at 10 µM was 41.2 ± 0.12%. Besides, in series [2], the remaining activity at 10 µM was 81.3 ± 2.92% and the IC50 is more than 40 µM.

As to `O=C(/C=C/c1ccccc1OCc1ccccc1)c1ccc(C(F)(F)F)cc1` [Compound B12], in series [1], the IC50 came to 37.6 ± 1.88 µM, the “SI (selectivity index for hMAO-B as compared with hMAO-A)” value is listed as more than 1.065 and the remaining activity at 10 µM is 75.4 ± 3.6%. Besides, in series [2], the remaining activity at 10 µM worked out at 86.7 ± 2.68% and the IC50 was more than 40 µM.

For the molecule `O=C(/C=C/c1ccc(OCc2ccccc2)cc1)c1ccc(C(F)(F)F)cc1` [Compound B13], in series [1], the IC50 is 0.255 ± 0.016 µM, the “SI (selectivity index for hMAO-B as compared with hMAO-A)” value was more than 156.617 and the remaining activity at 10 µM was 1.39 ± 3.27%. Moreover, in series [2], the remaining activity at 10 µM is 99.1 ± 1.24% and the IC50 is more than 40 µM.

Regarding `CCOc1ccc(C(=O)/C=C/c2ccccc2OCc2ccccc2)cc1` [Compound B14], in series [1], the half-inhibitory concentration (IC50) came out at 11.3 ± 0.331 µM, the “SI (selectivity index for hMAO-B as compared with hMAO-A)” value is more than 3.525 and the remaining activity at 10 µM turned out to be 51.9 ± 1.31%. In series [2], the remaining activity at 10 µM amounted to 91.2 ± 6.2% and the IC50 was more than 40 µM.

For `CCOc1ccc(C(=O)/C=C/c2ccc(OCc3ccccc3)cc2)cc1` [Compound B15], in series [1], the IC50 stood at 0.12 ± 0.01 µM, the “SI (selectivity index for hMAO-B as compared with hMAO-A)” value amounted to 287.600 and the remaining activity at 10 µM came out at 0%. Moreover, in series [4], the Pe value entry is given as “higher than 4.0 × 10^–6 cm/s”, the “Prediction (CNS permeation)” value is listed as “CNS + (Pe (10^−6 cm/s) > 4.00: CNS + (high permeation))” and the Papp came out at 4.09 ± 0.24 ×10⁻⁶ cm/s. Moreover, in series [2], the remaining activity at 10 µM turned out to be 75.9 ± 3.1% and the IC50 was 34.5 ± 3.54 µM. In series [5], the “Type of hMAO-B inhibition” value was “competitive inhibitors of hMAO-B” and the affinity corresponds to a Ki of 0.033 ± 0.001 µM. In series [6], the “Reversibility of hMAO-B inhibition” value is recorded as “reversible inhibitors of hMAO-B”; the “Relative activity of hMAO-B, undialyzed (AU)” value amounted to 41.68%; the “Relative activity of hMAO-B, dialyzed (AD)” value worked out at 78.78%.

For the molecule `C[C@H](NCc1ccc(OCc2cccc(F)c2)cc1)C(N)=O` [Safinamide], in series [7], the bioavailability result is given as “about 95%”.

With `C#CCN(C)[C@H](C)Cc1ccccc1` [Selegiline, reference compound], in series [4], the “Prediction (CNS permeation)” value was “CNS + (Pe (10^−6 cm/s) > 4.00: CNS + (high permeation))”.

(Values after paper PMC9794710, “Introduction of benzyloxy pharmacophore into aryl/heteroaryl chalcone motifs as a new class of monoamine oxidase B inhibitors” (Scientific Reports, 2022).)
